# Data: patent US9828588B2, “Methods and compositions for producing active vitamin K-dependent proteins” (The University of North Carolina at Chapel Hill, priority 2005, dated 2017)
# System: P450 2C9
# Experiment: Average warfarin maintenance dose in patients by P450 2C9 genotype
# Format: in vivo, human
# Conditions: patients heterozygous for P450 2C9*3, n=8
# From the text: Subjects were obtained from the UNC Coagulation Clinic in the Ambulatory Care Center. Informed consent was obtained by a trained genetic counselor. Subjects not fluent in English were excluded because of the lack of translators and the requirement for consent.
# The difference of average dose between different genotypes was compared by analysis of variance (ANOVA) using SAS version 8.0 (SAS, Inc., Cary, N.C.). A two-sided p value less than 0.05 was considered significant.
# Each marker was first analyzed independently.
# SAS was used first to do a repeated procedure in which a series of factors (race, gender, smoking history, hepatic diseases, SNPs at cytochrome […] gene, etc.) were examined to identify factors, excluding VKOR SNPs, which might affect dosage.
compound,measurement,value
CC(=O)CC(c1ccccc1)c1c(O)c2ccccc2oc1=O (stereo not shown) [warfarin],average warfarin dose,22.4±4.34 mg per week
